Patent publication US11058659B2, “Methods and compositions for the treatment of ophalmic diseases and disorders” (UNIVERSITY OF SOUTHERN CALIFORNIA, priority 2013, dated 2021)
Entries after “also recorded” stand apart in the source; their conditions may differ.

Legend:
[1] = test system: human mammary endothelial cells (HMEC); experiment: tube formation assay (HMEC cultured in Geltrex); format: cell-based; settings: 24 hours, concentration escalation, at greater than 100 nM, compared to untreated or no Geltrex
Protocol: FIG. 1. Inhibition of angiogenesis by compound 18 in a dose-dependent manner—Effect on tube formation. The effect of Compound 18 was evaluated using tube formation assay using a concentration escalation design.
(§1) Compound 18 was prepared using methods known in the art. (For example, see U.S. Pat. Nos. 8,115,023, and 7,683,193). […] (FIG. 3). On Day 7, retinal edema and angiogenesis between the two treatment groups were similar.

[2] = test system: VEGF-induced angiogenesis; experiment: VEGF-induced angiogenesis in a rabbit eye model; format: in vivo
Protocol: FIG. 2. Inhibition of angiogenesis by compound 18 in a dose-dependent manner—Effect on VEGF-induced angiogenesis in a rabbit eye model. (A) Study design. To evaluate the impact of compound 18, 10 μg of VEGF in each eye is administered as an intravitreal injection. In this study, the activity of compound 18 is evaluated in a concentration escalation manner from 0.125 to 0.5 mg given as a single dosage. A formulation of compound 18 where the dosage is admixed in a total of 50 μL, was administered immediately after VEGF administration. (B) Results.
FIG. 3. Comparison of compound 18 with bevacizumab (Avastin)—Effect on VEGF-induced angiogenesis in a rabbit eye model. The potency of compound 18 was compared with bevacizumab. (A) Study design. Using a VEGF-induction eye model, where 10 μg of VEGF is injected as an intravitreal administration. One dose of 0.5 mg of compound 18 was compared with 1.25 mg bevacizumab after VEGF induction. (B) Results. […] On Day 7, retinal edema and angiogenesis between the two treatment groups were similar.
as §1

[3] = test system: CNV lesions; experiment: choroidal neovascularization (CNV) model of age-related macular degeneration (AMD), laser induced lesions supplemented with VEGF; format: in vivo; settings: for CNV lesion number: week 4 of therapy, vs vehicle control; for vessels and edema in the CNV lesions (retinal angiography): by week 4, vs vehicle
Protocol: FIG. 4. Effect of compound 18 in a choroidal neovascularization (CNV) model of age-related macular degeneration (AMD). (A) Study Design: Simultaneous treatment model. Choroidal neovascularization (CNV) model, was used to determine its effect on new blood vessel formation. In this figure, laser induced lesions were further supplemented with 10 μg VEGF intravitreal administration every two weeks. Laser induced AMD lesions penetrated the Bruch's membrane. CNV lesions were treated with 0.5 mg compound 18 administered weekly, where first dosage was given at the time of CNV lesion formation. (B) Results.
FIG. 5. Effect of compound 18 in a choroidal neovascularization (CNV) model of age-related macular degeneration (AMD) A) Study Design: Sequential treatment model. CNV model was used to determine compound 18's effect on new blood vessel formation. Laser induced lesions were supplemented with 10 μg VEGF intravitreal administration every two weeks. CNV lesions were treated with 0.5 mg compound 18 administered weekly, were given one week after CNV lesion formation. (B) Results.
FIG. 6. Quantification of the Lesion Number and Mean Area. CNV lesions were enumerated at baseline, 2 and 4 weeks after CNV lesion formation. (A) Lesion Number. […] (B) Mean Area.
FIG. 8. Optical Coherence Tomography (OCT) of CNV Lesions Over Time. OCT was used to evaluate CNV lesion healing after compound 18 treatment.
FIG. 9. Confocal Scanning Fluorescent Microscope of CNV Lesions. Confocal scanning fluorescent microscopy is used to visualize the level of neovascular growth. In the vehicle treated lesions (Left), extensive neovascular growth is noted after one month.
FIG. 10. Confocal Scanning Electron Microscopy of CNV lesions treated with vehicle (Left) was compared with compound 18 treatment (Right).
as §1

[4] = test system: VEGF receptor 2; experiment: RT-PCR of CNV lesions after treatment: VEGF receptor 2; format: in vivo
Protocol: (§2) FIG. 7. RT-PCR Data of CNV after treatment. Reduced expression of pro-angiogenic and pro-inflammatory proteins upon treatment with compound 18.
as §1

[5] = test system: cyclooxygenase-2 (COX-2); experiment: RT-PCR of CNV lesions after treatment: COX-2; format: in vivo
Protocol: as §2, §1

[6] = Day 7, 10 μg VEGF intravitreal, one dose

Row | Molecule | inhibition of tube formation (angiogenesis) [1] | activity profile vs Avastin ([2]; 0.5 mg compound 18 vs 1.25 mg Avastin, Day 3 and Day 7 findings) | retinal edema and angiogenesis, 0.5 mg compound 18 compared to 1.25 mg bevacizumab ([2]; Day 3, 10 μg VEGF intravitreal, one dose) | retinal edema and angiogenesis between the two treatment groups (0.5 mg compound 18 vs 1.25 mg bevacizumab) [2, 6] | level of retinal edema and angiogenesis vs vehicle ([2]; Day 7, 10 μg VEGF intravitreal, single dose, doses >0.25 mg (0.125 to 0.5 mg tested)) | neovascular growth in CNV lesions (confocal scanning fluorescent microscopy) ([3]; after one month, vs vehicle treated lesions) | CNV lesion healing by Optical Coherence Tomography (OCT) ([3]; same lesion evaluated at 2 weeks and 4 weeks) | mean CNV area ([3]; sequential (SQ) treatment) | CNV lesion number ([3]; sequential (SQ) treatment) | vessels and edema in the CNV lesions (retinal angiography) ([3]; sequential treatment model, 0.5 mg weekly starting one week after lesion formation) | mean CNV area ([3]; simultaneous (SM) treatment) | CNV lesion number ([3]; simultaneous (SM) treatment) | vessels and edema in the CNV lesions (retinal angiography) ([3]; simultaneous treatment model, 0.5 mg weekly from time of lesion formation) | morphology of CNV lesions (Confocal Scanning Electron Microscopy) ([3]; vs vehicle (neovascular growth penetrating the Bruch's membrane)) | expression of VEGF receptor 2 (RT-PCR) ([4]; sequential (SQ) treatment) | expression of VEGF receptor 2 (RT-PCR) ([4]; simultaneous (SM) treatment) | expression of cyclooxygenase-2 (COX-2) (RT-PCR) ([5]; sequential (SQ) treatment) | expression of cyclooxygenase-2 (COX-2) (RT-PCR) ([5]; simultaneous (SM) treatment)
1 | CCCCC[C@@H](O)/C=C/c1cccc(/C=C/[C@@H](O)[C@@H](O)CCCC(=O)OC)c1 [Compound 18] | able to inhibit angiogenesis in a dose-response manner; also recorded: notable inhibition of tube formation | comparable or improved activity profile vs Avastin | significantly lower retinal edema and angiogenesis | similar | significantly reduced | significant reduction in neovascular growth | able to promote healing of a lesion | reduction in the mean CNV area | significantly reduced CNV lesion | statistically significant reduction in the vessels and edema | reduction in the mean CNV area | significantly reduced CNV lesion | statistically significant reduction in the vessels and edema | thin-walled fenestrated vascular channels with flat configuration | significantly reduced the expression | significantly reduced the expression | significantly reduced the expression | significantly reduced the expression
2 | bevacizumab: FDA-approved anti-VEGF antibody injected intravitreally [reference compound] | – | – | – | similar | – | – | – | – | – | – | – | – | – | – | – | – | – | –
